Our source for the IC50 and IC50 shift values is article PMC10544575, “Inhibitory mechanism of vortioxetine on CYP450 enzymes in human and rat liver microsomes” (Frontiers in Pharmacology, 2023).

SMILES strings stand for the structures. Like-named read-outs stand apart in the source and are kept apart here.

What all share (assay type): in vitro ADME
The test system of one data set is CYP2B. Put plainly: IC50-shift experiment, CYP2B in RLMs. To be noted: rat, rat liver microsomes, probe bupropion; for IC50 at 30 min: bupropion 20 μM. In general terms: Liver microsomes are a subcellular fraction often used to study metabolism.
The next data set concerns the target T1, CYP2C8 (Homo sapiens, UniProt P10632).
T1 sequence (P10632 1-490): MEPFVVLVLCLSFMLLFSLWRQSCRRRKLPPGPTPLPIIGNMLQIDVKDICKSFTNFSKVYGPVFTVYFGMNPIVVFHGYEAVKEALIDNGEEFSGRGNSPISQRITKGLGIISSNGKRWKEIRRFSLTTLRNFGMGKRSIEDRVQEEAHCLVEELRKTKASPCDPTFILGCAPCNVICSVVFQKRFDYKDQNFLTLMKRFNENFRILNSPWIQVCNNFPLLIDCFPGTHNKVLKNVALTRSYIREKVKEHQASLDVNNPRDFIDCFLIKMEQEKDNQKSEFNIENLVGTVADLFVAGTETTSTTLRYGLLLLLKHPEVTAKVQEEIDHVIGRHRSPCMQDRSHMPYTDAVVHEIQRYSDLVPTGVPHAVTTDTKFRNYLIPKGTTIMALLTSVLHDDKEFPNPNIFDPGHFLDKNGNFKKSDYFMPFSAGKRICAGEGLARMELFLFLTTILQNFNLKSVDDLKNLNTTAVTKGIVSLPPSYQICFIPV
Put plainly: IC50 of vortioxetine on CYP2C8 (amodiaquine) in HLMs. More on the design: 0.20 mg/mL HLMs; from tissue; host or cells: human liver microsomes. The protocol: (§1) The components of the incubation system were as follows: 0.20 mg/mL HLMs or 0.20 mg/mL RLMs, 0.1 M Tris-HCl, vortioxetine, and the probe substrates of each enzyme. In the study of Km’s (Michaelis–Menten constant) experiment, midazolam (1, 2, 5, 10, 20, 50 and 100 μM in HLMs and RLMs) corresponded to CYP3A4/3A; bupropion (10, 20, 50, 100, 200, 500, 1,000 and 2000 μM in HLMs; 1, 2, 5, 10, 20, 50, 100 and 200 μM in RLMs) corresponded to CYP2B6/2B; amodiaquine (5, 10, 20, 50, 100 and 200 μM in HLMs; 10, 20, 50, 100, 200, 500 μM in RLMs) corresponded to CYP2C8/CYP2C-1; losartan (1, 2, 5, 10, 20, 50, 100, 200 μM in HLMs; 10, 20, 50, 100, 200, 500 and 1,000 μM in RLMs) corresponded to CYP2C9/CYP2C-2; mephenytoin (20, 50, 100, 200, 500 and 1,000 μM in HLMs; 5, 10, 20, 50, 100, 200, 500 and 1,000 μM in RLMs) corresponded to CYP2C19/CYP2C-3; and dextromethorphan (1, 2, 5, 10, 20, 50 and 100 μM in HLMs and RLMs) corresponded to CYP2D6/CYP2D. […]
(§2) All experiments results were detected by UPLC-MS/MS, which equipped with a Waters Acquity UPLC system (Milford, MA, United States) and a Waters Xevo TQ-S triple quadrupole tandem mass spectrometer with an electrospray ionization source (Milford, MA, United States). […]
(§3) IC50 values and enzyme kinetic parameters were calculated by Graphpad Prism 6.0 (GraphPad software Inc., CA, United States). […] Data for each experiment were expressed as mean ± SD (n = 3).

The next data set has as its system CYP2C-3. Put plainly: IC50-shift experiment, CYP2C-3 in RLMs. To be noted: rat, rat liver microsomes, probe mephenytoin; for IC50 at 30 min: mephenytoin 400 μM. The method, then:
as §1, with “CYP2D6/CYP2D. After 5.0 min of preincubation in the shaking water bath, the reaction was started with the addition of 1.0 mM NADPH. The incubated temperature at 37°C for 30 min. After the incubation, the enzyme reaction was stopped by cooling at −80°C, and 200 μL of acetonitrile and 20 μL of internal standard diazepam (200 ng/mL) were added for protein precipitation.” for “CYP2D6/CYP2D.”
IC50-shift was used to investigate whether the drug produced time-dependent inhibition (TDI) of the enzyme. […] During the experiment, the individual substrates midazolam (4 μM), bupropion (40 μM), amodiaquine (3 μM), losartan (8 μM), mephenytoin (90 μM), and dextromethorphan (10 μM) were determined with vortioxetine IC50-shift in HLMs. […]
as §2, §3

Setting [1] is: 30 min preincubation with 1.0 mM NADPH.
The mark [2] stands for this setting: 30 min preincubation without NADPH.
Setting [3] is: ratio IC50 (−) NADPH to IC50 (+) NADPH, read-out: IC50 fold shift.

The term IC50 denotes the point on the concentration scale where inhibition reaches its midpoint. `Cc1ccc(Sc2ccccc2N2CCNCC2)c(C)c1` [vortioxetine]: the IC50 at 30 min with CYP2B (setting [1]) was found to be 5.3 µM; with CYP2B (setting [2]) it was 10.1 µM; in the data set on CYP2C-3 (setting [1]) it was 5.21 µM; with CYP2C-3 (setting [2]), 24.6 µM. Further, the IC50 shift at 30 min stood at 1.91 in the data set on CYP2B (setting [3]) and 4.72 in the data set on CYP2C-3 (setting [3]). Also, the IC50 at CYP2C8 (HLMs 0.20 mg/mL, amodiaquine at Km, 37°C, 30 min, read-out: IC50) is 15 µM; against CYP2C8 (inhibitory effect (strength judged by IC50), HLMs) it was above 10 µM.
